Assay results published in patent publication US20080280860A1, “Use of Vitamin D Compounds to Treat Endometriosis” (BioXell S.p.A., priority 2005, published 2008).

Legend:
[1] = system: endometriotic lesions; assay: In vivo model of endometriosis (lesion weight); parameters: species or system Balb/c mice; conditions: Example 2; each compound at its maximum tolerated level, ip once a day, 5 days a week for two weeks
Experimental: Balb/c donor mice were injected with estrogen (Estradiol AMSA; 3 ug/mouse) and one week later were sacrificed and the uterus was removed, the two horns isolated and reduced to small fragments. The fragments derived from the isolated uterine horns were resuspended in saline with ampicillin (1 mg/ml) and then injected into the peritoneum of two recipient Balb/c mice, previously anesthesized, through a 0.5 cm incision in the abdominal wall. […] Antibiotic (ampicillin 1 mg/ml) was administered on the day of the surgery and on the day after. […] […] Lesions can be identified as translucid isolated or grouped cysts mainly found on the abdominal wall, on the pancreas, and around the uterus. In some cases the lesions are necrotic. The lesions were carefully removed and put on a glass slide to dry for 48 hours, and then were weighed. In other experiments lesions are transferred to a lysis solution and mRNA isolated for gene expression analysis. For immunohistochemical analysis, lesions were frozen immediately after isolation.
Balb/c donor mice were injected with estrogen (Estradiol AMSA; 3 ug/mouse) and one week later were sacrificed and the uterus was removed, the two horns isolated and reduced to small fragments. The fragments derived from the isolated uterine horns were resuspended in saline with ampicillin (1 mg/ml) and then injected into the peritoneum of two recipient Balb/c mice, previously anesthetised, through a 0.5 cm incision in the abdominal wall. Antibiotic (ampicillin 1 mg/ml) was administered on the day of the surgery and on the day after. […] Dosage levels of the test compounds were at the maximum tolerated levels for the compound in question, i.e. 1-alpha-fluoro-25-hydroxy-16,23E-diene-26,27-bishomo-20-epi-cholecalciferol (Compound A) 100 ug/kg, calcitriol (Compound B) 0.3 ug/kg and 1,25-dihydroxy-21-(3-hydroxy-3-methylbutyl)-19-nor-cholecalciferol (Compound C) 3 ug/kg.
(§1) […] Lesions can be identified as translucid isolated or grouped cysts mainly found on the abdominal wall, on the pancreas, and around the uterus. In some cases the lesions are necrotic. The lesions were carefully removed and put on a glass slide to dry for 48 hours, and then were weighed.
Balb/c donor mice were injected with estrogen (Estradiol AMSA; 3 ug/mouse) and one week later were sacrificed and the uterus was removed, the two horns isolated and reduced to small fragments. The fragments derived from the isolated uterine horns were resuspended in saline with ampicillin (1 mg/ml) and then injected into the peritoneum of recipient Balb/c mice, previously anesthetised, through a 0.5 cm incision in the abdominal wall. Antibiotic (ampicillin 1 mg/ml) was administered on the day of the surgery and on the day after. […]
as §1, with “weighed. At least 10 test animals were used in each group.” for “weighed.”
Further experiments were performed using Compound A at 100 ug/kg but varying the time at which administration of the vitamin D compound was initiated and the time point at which administration was ceased. Specifically: (i) administration for 1 week prior to injection of the uterine fragments (ii) administration for 2 weeks subsequent to injection of the uterine fragments (iii) administration for 1 week prior and 2 weeks subsequent to injection of the uterine fragments (iv) administration for 2 weeks, initiated two days subsequent to injection of the uterine fragments (v) administration for 2 weeks, initiated two weeks subsequent to injection of the uterine fragments. In these experiments, subjects were sacrificed at the later of two weeks post injection or the end of the treatment period as appropriate.

[2] = Maximum tolerated dose; format: in vivo, Balb/c mice; conditions: Balb/c, mouse, in vivo; mice, ip; above it the compound becomes hypercalcemic

| SMILES | lesion weight, treated versus control (vehicle only), statistical analysis [1] | MTD [2] [µg/kg] |
| --- | --- | --- |
| C=C1/C(=C\C=C2/CCC[C@]3(C)[C@@H]([C@H](C)CCCC(C)(C)O)CC[C@@H]23)C[C@@H](O)C[C@@H]1O [Compound B, calcitriol, reference compound] | significant reduction in lesion weight | 0.3 |
| CC(C)(O)CCCC(CCCC(C)(C)O)[C@H]1CC[C@H]2/C(=C/C=C3C[C@@H](O)C[C@H](O)C3)CCC[C@]12C [Compound C, 1,25-dihydroxy-21-(3-hydroxy-3-methylbutyl)-19-nor-cholecalciferol] | no significant reduction in lesion weight | 3 |
